These results are taken from patent US20080114007A1 (priority 2006, published 2008).

Structures are written as SMILES.

One assay addresses c-fms (Homo sapiens, UniProt P07333). Briefly: Autophosphorylation, fluorescence polarization competition immunoassay. The assay is classed as biochemical. Conditions: 10 nM c-fms, 1 mM ATP, 5 mM MgCl2, 45 min; averages of three independent measurements. Here is the method:
The assay buffer used was 100 mM 4-(2-hydroxyethyl)piperazine 1-ethanesulfonic acid (HEPES), pH 7.5, 1 mM 1,4-dithio-DL-threitol (DTT), 0.01% (v/v) Tween-20. Compounds were diluted in assay buffer containing 4% dimethylsulfoxide (DMSO) just prior to the assay. […] The kinase reaction was initiated by adding 2 μL of 5 mM ATP (Sigma) in assay buffer. The final concentrations in the assay were 10 nM c-fms, 1 mM ATP, 5 mM MgCl2, 2% DMSO. Control reactions were ran in each plate: in positive and negative control wells, assay buffer (made 4% in DMSO) was substituted for the compound; in addition, positive control wells received 1.2 μL of 50 mM ethylenediaminetetraacetic acid (EDTA).
At the end of the incubation, the reaction was quenched with 1.2 μL of 50 mM EDTA (EDTA was not added to the positive control wells at this point; see above). Following a 5-min incubation, each well received 10 μL of a 1:1:3 mixture of anti-phosphotyrosine antibody, 10×, PTK green tracer, 10× (vortexed), FP dilution buffer, respectively (all from PanVera, cat. # P2837). The plate was covered, incubated for 30 min at room temperature and the fluorescence polarization was read on the Analyst.
The IC50 values shown in Table 1 are averages of three independent measurements.

The next assay concerns the target CSF-1R (Homo sapiens, UniProt P07333). Description: Peptide (non-phosphorylated) assay, fluorescence polarization competition immunoassay. The assay is classed as biochemical. The following applies: 0.7 nM CSF-1R, 308 μM SYEGNSYTFIDPTQ peptide, 1 mM ATP, 80 min; mean of at least three determinations; read-out: c-fms Peptide IC50. An outline of the steps: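 Read-out is fluorescence polarization: after EDTA quench, anti-phosphotyrosine antibody plus PTK green tracer compete with the phosphorylated peptide for 30 min. The CSF-1R reaction itself ran 80 min at room temperature after ATP addition. DMSO (4%) wells served as controls, positive controls pre-treated with EDTA.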
(In general: Fluorescence polarisation rises when a labelled molecule tumbles more slowly, as on binding a larger partner.)

Chain of c-fms (P07333 20-972): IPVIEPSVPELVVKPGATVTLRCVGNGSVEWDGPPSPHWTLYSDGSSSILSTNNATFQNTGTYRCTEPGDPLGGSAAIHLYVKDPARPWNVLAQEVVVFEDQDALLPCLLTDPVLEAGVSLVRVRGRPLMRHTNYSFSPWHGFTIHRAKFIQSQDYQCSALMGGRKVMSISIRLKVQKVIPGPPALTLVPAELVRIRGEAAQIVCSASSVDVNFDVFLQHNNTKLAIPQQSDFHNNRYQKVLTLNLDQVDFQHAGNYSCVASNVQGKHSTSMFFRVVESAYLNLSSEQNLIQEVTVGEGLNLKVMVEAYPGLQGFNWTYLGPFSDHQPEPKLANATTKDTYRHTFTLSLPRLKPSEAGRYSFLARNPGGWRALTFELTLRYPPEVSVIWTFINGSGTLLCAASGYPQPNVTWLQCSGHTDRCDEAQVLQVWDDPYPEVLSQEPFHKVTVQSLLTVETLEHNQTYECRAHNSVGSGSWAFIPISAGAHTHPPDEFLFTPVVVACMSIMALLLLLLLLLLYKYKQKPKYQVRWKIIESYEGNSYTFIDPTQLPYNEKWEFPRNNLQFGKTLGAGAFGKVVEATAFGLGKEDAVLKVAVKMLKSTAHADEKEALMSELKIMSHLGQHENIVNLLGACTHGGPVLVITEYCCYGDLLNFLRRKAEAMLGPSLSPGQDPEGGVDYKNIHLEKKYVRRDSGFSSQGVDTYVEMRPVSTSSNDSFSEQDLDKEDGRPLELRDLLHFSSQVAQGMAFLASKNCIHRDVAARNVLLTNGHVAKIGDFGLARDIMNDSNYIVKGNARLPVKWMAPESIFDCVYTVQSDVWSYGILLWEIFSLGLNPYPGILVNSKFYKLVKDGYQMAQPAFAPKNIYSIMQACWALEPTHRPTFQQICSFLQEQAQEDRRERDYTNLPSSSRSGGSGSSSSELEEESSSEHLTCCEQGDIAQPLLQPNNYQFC
Chain of CSF-1R (P07333 20-972): as above

Take `CNC(=O)c1cn(-c2ccc3c(c2)CCC3)c2nc(Nc3cccc(C(=O)N4CCCCC4)c3)ncc2c1=O` [Cpd 113, 8-indan-5-yl-5-oxo-2-[3-(piperidine-1-carbonyl)-phenylamino]-5,8-dihydro-pyrido[2,3-d]pyrimidine-6-carboxylic acid methylamide]: the IC50 on c-fms is above 1000 nM. Molecule `NC(=O)c1cn(-c2ccc3c(c2)CCC3)c2nc(Nc3ccc(CN4CCCCC4)cc3)ncc2c1=O` [Cpd 119, 8-indan-5-yl-5-oxo-2-(4-piperidin-1-ylmethyl-phenylamino)-5,8-dihydro-pyrido[2,3-d]pyrimidine-6-carboxylic acid amide] displayed an IC50 on c-fms of 2.6 nM. As to `CONC(=O)c1cn(-c2ccc3c(c2)CCC3)c2nc(Nc3ccc(C4CCN(S(C)(=O)=O)CC4)cc3)ncc2c1=O` [Cpd 76, 8-indan-5-yl-2-[4-(1-methanesulfonyl-piperidin-4-yl)-phenylamino]-5-oxo-5,8-dihydro-pyrido[2,3-d]pyrimidine-6-carboxylic acid methoxy-amide], the half-inhibitory concentration (IC50) at CSF-1R was found to be 0.83 nM.

A word on the IC50: it is the concentration that gives 50% inhibition.
